Data from ChEMBL document CHEMBL1122928, “Stereostructure-activity relationship of opioid agonist and antagonist bivalent ligands. Evidence for bridging between vicinal opioid receptors” (J Med Chem, 1985).

Columns and labels:
[1] = biological target: T1, Opioid receptors; mu/kappa/delta (Homo sapiens) (UniProt P41145+P41143+P35372); assay: In vitro agonist activity towards opioid receptor on the electrically stimulated Guinea pig ileal longitudinal muscle (GPI); morphine IC50/ agonist IC50 in the same tissue; format: functional; conditions: Cavia porcellus; target entry is the homologue from another species
[2] = biological target: T1, Opioid receptors; mu/kappa/delta (Homo sapiens); assay: The relative potency was evaluated with respect to morphine.; conditions: Cavia porcellus

T1 sequence (P35372 whole entry, looked up): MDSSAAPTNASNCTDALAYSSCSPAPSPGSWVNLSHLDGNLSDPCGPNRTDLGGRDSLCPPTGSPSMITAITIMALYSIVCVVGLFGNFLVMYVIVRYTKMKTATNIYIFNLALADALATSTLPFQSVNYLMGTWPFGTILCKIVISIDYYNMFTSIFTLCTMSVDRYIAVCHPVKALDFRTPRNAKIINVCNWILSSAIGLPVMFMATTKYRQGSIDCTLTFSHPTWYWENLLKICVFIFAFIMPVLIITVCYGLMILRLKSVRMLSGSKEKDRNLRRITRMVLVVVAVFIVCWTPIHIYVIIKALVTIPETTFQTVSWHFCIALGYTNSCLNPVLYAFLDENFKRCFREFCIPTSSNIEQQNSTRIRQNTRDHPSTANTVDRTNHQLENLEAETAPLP
T1 sequence (P41143 whole entry, looked up): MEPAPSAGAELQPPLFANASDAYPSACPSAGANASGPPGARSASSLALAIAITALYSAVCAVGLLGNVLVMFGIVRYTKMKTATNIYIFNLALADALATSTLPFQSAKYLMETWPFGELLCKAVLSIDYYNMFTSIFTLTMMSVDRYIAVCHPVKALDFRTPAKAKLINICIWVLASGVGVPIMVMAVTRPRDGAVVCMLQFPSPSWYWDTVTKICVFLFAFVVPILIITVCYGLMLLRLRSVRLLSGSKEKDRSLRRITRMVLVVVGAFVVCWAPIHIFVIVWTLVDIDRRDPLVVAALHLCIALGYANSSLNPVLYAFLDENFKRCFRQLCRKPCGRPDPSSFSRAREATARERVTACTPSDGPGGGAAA
T1 sequence (P41145 whole entry, looked up): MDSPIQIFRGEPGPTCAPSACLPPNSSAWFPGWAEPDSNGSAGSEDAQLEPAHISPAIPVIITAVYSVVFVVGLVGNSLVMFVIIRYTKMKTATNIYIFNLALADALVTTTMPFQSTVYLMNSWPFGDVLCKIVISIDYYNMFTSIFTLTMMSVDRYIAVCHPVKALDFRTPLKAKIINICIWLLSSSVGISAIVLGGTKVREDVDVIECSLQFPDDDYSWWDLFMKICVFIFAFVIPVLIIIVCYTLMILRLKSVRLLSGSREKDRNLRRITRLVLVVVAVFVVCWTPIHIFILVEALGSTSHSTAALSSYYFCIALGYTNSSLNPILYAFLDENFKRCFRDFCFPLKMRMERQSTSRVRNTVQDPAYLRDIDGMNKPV

CC(=O)NCC(=O)NCC(=O)NC1CCC2(O)[C@H]3Cc4ccc(O)c5c4C2(CCN3CC2CC2)C1O5 (stereo partly drawn)
Potency ratio [1]: 5.4
Relative potency [2]: 1

CC(=O)NCC(=O)NCC(=O)NC1CCC2(O)[C@H]3Cc4ccc(O)c5c4C2(CCN3C)C1O5 (stereo partly drawn)
Potency ratio [1]: 1.9

CN1CCC23c4c5ccc(O)c4OC2C(NC(=O)CNC(=O)CNC(=O)CCC(=O)NCC(=O)NCC(=O)NC2CCC4(O)[C@H]6Cc7ccc(O)c8c7C4(CCN6C)C2O8)CCC3(O)[C@H]1C5 (stereo partly drawn)
Potency ratio [1]: 7.6

O=C(CCC(=O)NCC(=O)NCC(=O)NC1CCC2(O)[C@H]3Cc4ccc(O)c5c4C2(CCN3CC2CC2)C1O5)NCC(=O)NCC(=O)NC1CCC2(O)[C@@H]3Cc4ccc(O)c5c4C2(CCN3CC2CC2)C1O5 (single isomer, unassigned; (-))
Potency ratio [1]: 181
Relative potency [2]: 33.5

O=C(CCC(=O)NCC(=O)NCC(=O)NC1CCC2(O)[C@H]3Cc4ccc(O)c5c4C2(CCN3CC2CC2)C1O5)NCC(=O)NCC(=O)NC1CCC2(O)[C@H]3Cc4ccc(O)c5c4C2(CCN3CC2CC2)C1O5 (stereo partly drawn)
Potency ratio [1]: 7.8
Relative potency [2]: 1.4
